Measured values taken from ChEMBL document CHEMBL1128596, “Thienylimidazo[2,1-b]thiazoles as inhibitors of mitochondrial NADH dehydrogenase” (J Med Chem, 1995).
pIC50: −log10 of the molar value.

Tests used:
Parascaris equorum = assay: Residual NADH:UBQ:DCIP reductase activity in parascaris mitochondrial particles; set-up: concentration or dose not given beside the values
[1] = Compound was tested for it's ability to inhibit NADH UBQ reductase activity in beef mitochondrial particles; set-up: species or system Bos taurus
Bos taurus = species on record: Bos taurus; assay: Residual NADH:UBQ:DCIP reductase activity in beef mitochondrial particles; set-up: concentration or dose not given beside the values
[2] = Compound was tested for it's ability to inhibit NADH UBQ reductase activity in parascaris mitochondrial particles

Compound | residual activity (Parascaris equorum) | pIC50 [1] | residual activity (Bos taurus) | pIC50 [2]
Cc1cn2cc(-c3ccsc3)nc2s1 | 73% | 3.85 | 40% | 
Cc1cn2cc(-c3cccs3)nc2s1 | 59% | 4.15 | 28% | 3.66
Cn1c(Cl)c(/C=C\c2cccs2)[n+]2c1SCC2 | 92% |  | 85% | 
Clc1cn2cc(-c3cccs3)nc2s1 | 75% |  | 40% | 
c1csc(-c2cn3c(n2)SCC3)c1 | 88% |  | 68% | 
Cn1c(-c2ccccc2)c(/C=C/c2cccs2)[n+]2ccsc12 | 94% |  | 81% | 
c1csc(-c2cn3ccsc3n2)c1 | 79% |  | 57% | 
c1cc(-c2cn3ccsc3n2)cs1 | 83% |  | 68% | 
C=C(C)[C@H]1Cc2c(ccc3c2O[C@@H]2COc4cc(OC)c(OC)cc4[C@@H]2C3=O)O1 | 65% |  | 34% | 
Cc1csc2nc(-c3cccs3)cn12 | 70% | 4.05 | 38% | 3.42
Cn1c(-c2ccccc2)c(/C=C/c2cccs2)[n+]2c1SCC2 | 92% |  | 77% | 
Cc1csc2nc(-c3ccsc3)cn12 | 75% | 3.68 | 43% | 
Cn1c(Cl)c(/C=C/c2cccs2)[n+]2c1SCC2 | 88% |  | 91% | 
